Assay results: PMC9220178, “Preclinical Characterization of Antioxidant Quinolyl Nitrone QN23 as a New Candidate for the Treatment of Ischemic Stroke” (Antioxidants, 2022)

How the values were obtained:
Assay type in all cases: in vivo, rat
[1] = system: adult male Wistar rats, four-vessel occlusion (4VO) transient forebrain ischemia; assay: Neuronal death by Fluoro-Jade B staining after transient global cerebral ischemia (4VO); conditions: 40 mg/kg i.v. at 0, 1, 3 or 6 h of reperfusion; R5d
Method: (§1) Transient forebrain ischemia was induced in adult male Wistar rats (10–12 weeks, Charles River, L’Arbresle, France) by the standard four-vessel occlusion (4VO) model previously described. Briefly, animals were anesthetized by intraperitoneal injection of a combination of ketamine, diazepam, and atropine (62.5, 5.0, and 0.25 mg/kg, respectively); positioned in a stereotactic device; and both vertebral arteries were cauterized. The next day, anesthesia was induced with 4% isoflurane and maintained at 2–2.5% isoflurane for carotid artery dissection. After anesthesia withdrawal, the carotid arteries were occluded with an atraumatic vascular clamp to induce brain ischemia. During the entire surgical procedure, temperature was monitored at 2 min intervals and kept at 37 °C. After 15 min of ischemia, the carotid arteries were unclamped for brain reperfusion. The animals were studied after 5 days of reperfusion (R5d), or after 11 weeks of reperfusion (long-term studies), and then they were euthanized under deep anesthesia. Animals from the sham control group were handled in the same way, but without occlusion of the carotid arteries. Ischemic animals were treated with vehicle solution (ethanol/polyethylene glycol 400/saline, 1:300:200 v/v), or with nitrones QN23 or NXY-059 in vehicle solution, as a single injection through the tail vein at the onset of reperfusion. For the therapeutic window experiments, the animals were also treated at reperfusion times 1, 3, and 6 h after ischemia. The treatments were prepared by an independent researcher and administered with concealed allocation. Treatments were administered in a randomized order obtained by a computer-based randomization program. To determine the sample size, a power analysis (http://www.biomath.info/power/ttest.htm, accessed on 12 March 2020) with significance level set at 0.05 and statistical power set at 0.8 (80%) rendered a sample size of <6 subjects per group. A total of 120 ischemic animals (30 animals treated with vehicle, 60 treated with QN23, and 30 treated with NXY-059) and 9 sham control animals were included in these studies. Additionally, 13 animals were excluded from the study: 6 animals were not ischemic and 7 animals died within the 24 h after the surgical procedure (5 vehicles, 1 QN23-treated at 1.0 mg/kg, and 1 QN23-treated at 2.0 mg/kg). The Animal Care Ethics Committee of the Hospital Universitario Ramón y Cajal (Madrid, Spain) authorized all the procedures involving the animal experimentation reported here (authorization number 04/2020). These experiments were performed according to ARRIVE guidelines and the legislation on the protection of animals used for scientific purposes in Spain (RD 53/2013) and the EU (Directive 2010/63/EU). The study was designed and conducted according to the STAIR guidelines regarding physiological monitoring, sample randomization, predefined exclusion criteria, allocation concealment, blinded assessment of outcomes, dose–response definition, and a conflict-of-interest statement.
(§2) After 5 days of reperfusion (R5d), or at 11 weeks of reperfusion in long-term studies, animals were euthanized by transcardiac perfusion via the left ventricle under deep anesthesia. First, blood was washed out with 200 mL of ice-cold saline medium, followed by fixation with 4% (w/v) paraformaldehyde solution in PBS for brain preservation. Then, the brains were carefully removed from the cranial cavity and placed in 4% (w/v) paraformaldehyde solution in PBS overnight at 4 °C. The next day, the brains were sequentially placed in 10%, 20%, and 30% (w/v) sucrose in PBS until sunken, and finally embedded in Tissue-Tek O.C.T. (Sakura Finetek, Torrance, CA, USA) before freezing at −80 °C. Brain coronal sections containing the hippocampus region were obtained by cryostat sectioning at the level of interaural line +5.7 ± 0.2 mm on Real Capillary Gap microscope slides (Agilent Dako, Santa Clara, CA, USA). […]

[2] = system: adult male Wistar rats, four-vessel occlusion (4VO) transient forebrain ischemia; assay: Neuronal apoptosis by TUNEL assay after transient global cerebral ischemia (4VO); conditions: 40 mg/kg i.v. at 0, 1, 3 or 6 h of reperfusion; R5d
Method: as §1, §2

[3] = system: adult male Wistar rats, four-vessel occlusion (4VO) transient forebrain ischemia; assay: Long-term behavioral tests in the Y maze; conditions: 40 mg/kg i.v. at reperfusion onset, 11 weeks after ischemia
Method: Long-term assessment of neurological damage after the ischemic episode was performed by the evaluation of the spontaneous exploratory activity (spatial recognition) and spatial memory skills in the Y maze.
For the assessment of the exploratory activity and spatial recognition, control animals and ischemic animals treated with vehicle, QN23, or NXY-059 were placed in the center of the maze and allowed free exploration for 8 min. An independent researcher blind to the treatment allocation registered the total number of arms that the animal entered indistinctly (arm entries), and the times that the animal explored the three different arms of the maze consecutively (alternations or triads).
For the assessment of spatial memory, experiments consisted of two trials. For the first trial (training), control and ischemic animals treated with vehicle or QN23 were placed into one of the arms (start arm) and allowed to explore the Y maze for 10 min with one of the arms closed. One hour after the training trial, the animals were returned to the Y maze and the second trial was conducted. The animals were placed in the same start arm as in the training trial, but now with the remaining two arms of the maze available for exploration for 3 min. A researcher blind to the treatment allocation registered the first choice of arm for entry (novel or old).

[4] = system: adult male Wistar rats, four-vessel occlusion (4VO) transient forebrain ischemia; assay: Neurological deficit score (NDS) after global cerebral ischemia (4VO); conditions: 40 mg/kg i.v.; R5d; times tested 0, 1, 3, 6 h
Method: Transient forebrain ischemia was induced in adult male Wistar rats (10–12 weeks, Charles River, L’Arbresle, France) by the standard four-vessel occlusion (4VO) model previously described. Briefly, animals were anesthetized by intraperitoneal injection of a combination of ketamine, diazepam, and atropine (62.5, 5.0, and 0.25 mg/kg, respectively); positioned in a stereotactic device; and both vertebral arteries were cauterized. The next day, anesthesia was induced with 4% isoflurane and maintained at 2–2.5% isoflurane for carotid artery dissection. After anesthesia withdrawal, the carotid arteries were occluded with an atraumatic vascular clamp to induce brain ischemia. During the entire surgical procedure, temperature was monitored at 2 min intervals and kept at 37 °C. After 15 min of ischemia, the carotid arteries were unclamped for brain reperfusion. The animals were studied after 5 days of reperfusion (R5d), or after 11 weeks of reperfusion (long-term studies), and then they were euthanized under deep anesthesia. Animals from the sham control group were handled in the same way, but without occlusion of the carotid arteries. Ischemic animals were treated with vehicle solution (ethanol/polyethylene glycol 400/saline, 1:300:200 v/v), or with nitrones QN23 or NXY-059 in vehicle solution, as a single injection through the tail vein at the onset of reperfusion. For the therapeutic window experiments, the animals were also treated at reperfusion times 1, 3, and 6 h after ischemia. The treatments were prepared by an independent researcher and administered with concealed allocation. Treatments were administered in a randomized order obtained by a computer-based randomization program. […]
After 5 days of post-ischemic reperfusion (R5d), neurological deficits were evaluated in the animals by a researcher blind to the treatment allocation. General status and mobility impairments were quantified according to a scale previously validated in an entire cohort of R5d animals (n = 20). […]

CC(C)(C)[N+]([O-])=Cc1ccc(S(=O)(=O)[O-])cc1S(=O)(=O)[O-].[Na+].[Na+] [NXY-059, reference compound]
Neuronal death compared with vehicle [1]: did not reduce neuronal death | Apoptosis reduction compared with vehicle [2]: did not produce a significant effect | Y maze arm entries (exploratory activity) [3]: fewer arm maze entries | Y maze alternations (triads completed), spatial recognition ([3]; vehicle 5.0, control 15.75): 5.5 | Percentage of animals exploring the novel arm as a first choice (spatial memory) ([3]; vehicle 17%, control 75%): 50% | Therapeutic window: administration time after reperfusion onset with significantly reduced NDS [4]: 0 h
